The record followed here is ChEMBL document CHEMBL1159026, “Brominated beta-carbolines from the marine tunicate Eudistoma album” (1992).

Holding throughout (assay type): functional
Assay [1] concerns KB. Kind of assay: Cytotoxicity against human KB cells at 0.005 to 10 ug/ml.
Assay [2] deals with KB. Kind of assay: Cytotoxicity against human KB cells. Particulars: read-out: ED50 (the source's name).
For assay [3], the system named is KB. Description: Cytotoxicity against human KB cells at 1 ug/ml.
For assay [4], the system named is KB. Description: Cytotoxicity against human KB cells at 5 ug/ml.
Assay [5] concerns KB. Kind of assay: Cytotoxicity against human KB cells at 10 ug/ml.

In brackets after ≈: the same amount, converted by molar mass.

`CC(C)CC(N)c1nccc2c1[nH]c1cc(Br)ccc12` (centres undefined) [EUDISTALBIN A]: the EC50 with KB [1] (Homo sapiens, KB, read-out: ED50 (the source's name)) was 3.2 µg/mL (≈ 9.63 µM); in the assay with KB [2], 3.2 µg/mL (≈ 9.63 µM). Moreover, the Activity in the assay with KB [3] worked out at 0%; in the assay on KB [4], 92%; in the assay on KB [5], 100%.
As to `CC(C)CC(=O)c1nccc2c1[nH]c1cc(Br)ccc12` [EUDISTALBIN B], the Activity in the assay with KB [3] and in the assay with KB [5] was 0% in each case.
In turn, `N[C@@H]1CSCON2CCc3c([nH]c4ccc(O)c(Br)c34)[C@H]12` [EUDISTOMIN E] showed an Activity in the assay on KB [1] of 100%. In addition, the EC50 in the assay on KB [2] was less than 0.005 µg/mL.
